Molecular target: human Factor Xa (Homo sapiens, UniProt P00742)
Test: In vitro fluorogenic assay for inhibition of Factor Xa
Assay type: biochemical
Details: Ki = IC50/1.6
Experimental: In Vitro Assay for Inhibition of Factor Xa
Compounds of the present invention were tested for their Factor Xa inhibitory activity as determined in vitro by their ability to inhibit human Factor Xa in a fluorogenic assay, using Rhodamine 110, bis-CBZ-glycylglycyl-L-arginine amide as the fluorogenic substrate. Compounds were diluted from a 10 mM stock solution in dimethylsulfoxide at appropriate concentrations. Assay was performed at room temperature using buffer consisting of: 50 mM Tris-HCl, 150 mM NaCl, 5 mM CaCl2, pH 7.4 containing human Factor Xa (final concentration of 0.0003 U.ml-1). Compound and enzyme were preincubated for 15 min prior to addition of the substrate (final concentration of 10 μM). The reaction was stopped after 3 hrs with the addition of H-D-Phe-Pro-Arg-Chloromethylketone. An LJL-Analyst fluorimeter was used to monitor fluorescence with 485 nm excitation/535 nm emission. To obtain IC50 values the data were analysed using ActivityBase® and XLfit®.
Calculation of Ki values:
Ki=IC50/(1+[Substrate]/Km)
The Ki value for the above assay can be obtained by dividing the IC50 value by 1.6.

Sequence of human Factor Xa (P00742 235-488 limits assumed): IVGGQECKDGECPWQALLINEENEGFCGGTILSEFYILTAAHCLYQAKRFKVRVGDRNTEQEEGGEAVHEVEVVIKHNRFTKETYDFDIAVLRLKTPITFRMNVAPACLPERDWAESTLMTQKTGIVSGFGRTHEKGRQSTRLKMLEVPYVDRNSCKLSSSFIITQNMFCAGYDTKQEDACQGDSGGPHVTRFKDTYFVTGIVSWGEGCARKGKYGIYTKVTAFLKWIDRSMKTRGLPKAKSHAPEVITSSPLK
Sequence of human Factor Xa (P00742 41-179 partner limits assumed): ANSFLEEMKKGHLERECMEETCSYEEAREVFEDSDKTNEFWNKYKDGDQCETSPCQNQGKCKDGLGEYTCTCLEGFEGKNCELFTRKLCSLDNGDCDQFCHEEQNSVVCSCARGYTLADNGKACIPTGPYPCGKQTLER

Ki [nM]	SMILES
< 50	CN(C)C1CCc2cc(N3CCC(NS(=O)(=O)c4cc5ccc(Cl)cc5s4)C3=O)ccc21 (centres unmarked) [Example 3, 6-Chloro-N-{1-[1-(dimethylamino)-2,3-dihydro-1H-inden-5-yl]-2-oxo-3-pyrrolidinyl}-1-benzothiophene-2-sulfonamide]
< 50	CNC1CCc2cc(N3CC[C@H](N(C)S(=O)(=O)c4ccc5cc(Cl)ccc5c4)C3=O)ccc21 (stereo partly drawn) [Example 12, 6-Chloro-N-methyl-N-{(3S)-1-[1-(methylamino)-2,3-dihydro-1H-inden-5-yl]-2-oxo-3-pyrrolidinyl}-2-naphthalenesulfonamide]

— patent US20070249705A1, “N-(1-(2,3-Dihydro-1H-Inden-5Yl)-2-Oxo-3-Pyrrolidinyl)-Sulfonamide Derivatives for Use as Factor Xa Inhibitors” (priority 2004, published 2007)
